Patent US12576033B2, “Spray-dried formulation of a pyridazinone TRPC5 inhibitor” (GFB (ABC), LLC, priority 2019, dated 2026)

How the values were obtained:
Type in all cases: physicochemical
[1] = Visual solubility in common spray drying solvents
Experimental: Organic solubility of Compound 1 was determined visually in common spray drying solvents (Table 10) and Compound 1 lot AC5313-058P1 was utilized. […] When removed from heat API crashes out after 5 minutes. Solution (% w/w) was then prepared at 2.0% Compound 1 and heated to 40° C. where solids dissolved immediately. The 2.0% solution was then removed from heat where API appeared to crash out after ˜2 hours.

[2] = MDSC thermal analysis (Tg)
Experimental: MDSC was performed using a TA Instruments Discovery DSC2500 differential scanning calorimeter equipped with a TA instruments Refrigerated Cooling System 90. MDSC was used to measure thermodynamic events and characteristics of Compound 1 API and subsequent SDIs. Events observed include the glass transition temperature (Tg), cold crystallization (Tc, defined as a crystallization event at a temperature lower than the melt temperature) and melting temperature (Tm). SDI samples were placed in non-hermetic aluminum pans and heated at a constant rate of 2.0° C./min over a 0-200° C. temperature range. The system was purged by nitrogen flow at 50 mL/min to ensure inert atmosphere through the course of measurement. […] The resulting amorphous API was analyzed by modulated DSC up to 265° C. […]
Thermal properties including melting temperature (Tm), glass transition temperature (Tg) and crystallization temperature (Tc) of Compound 1 crystalline Form H (anhydrous/solvate free) were measured by MDSC. […] The Tg was measured via a melt-quench technique, heating Compound 1 past its melting temperature and rapidly cooled in liquid nitrogen to trap the molten material in an amorphous state. The resulting sample was analyzed by MDSC and a Tg of 130° C. was observed (FIGS. 1A-B/Table 9) with no observed crystallization peaks or clear melting events in the subsequent amorphous ramp up to 275° C. […]

[3] = Two stage gastric transfer non-sink dissolution test (0.1N HCl/FaSSIF)
Experimental: In-vitro drug dissolution performance for each SDI is evaluated by Patheon's two stage ‘gastric transfer’ non-sink dissolution test (Table 8), which simulates pH and bile salt concentrations for both gastric and intestinal exposure in a simple to perform assay. Pre-weighed SDI powder is briefly suspended in media (e.g. by 10 sec vortex mixing with 4.0 mL media) and transferred to a pre-heated (37° C.) volume of 50 mL of 0.1N HCl(aq) (simulated gastric fluid or SGF, pH˜1.0, without pepsin or bile salts), in a USP Type 2 mini-vessel (100 mL total vessel volume) while stirring (paddles) at 100 rpm. After 30 minutes of gastric pH exposure, an equal volume of PBS buffered, 2× concentrated fasted-state simulated intestinal fluid (FaSSIF) is added to the SGF, resulting in a final pH of 6.8 in FaSSIF (100 mM PBS containing 2.24 mg/mL SIF powder (original) (Biorelevant Inc.) in a total volume of 100 mL. Aliquiots (1.0 mL) of dissolution media are taken at selected time-points before and after the simulated gastric transfer, spun-down (13000 rpm) to pellet out undissolved solids, and the supernatant sampled and further diluted in an appropriate diluent to determine API total drug concentration (e.g. free and colloidal/polymer-bound drug in solution) utilizing a suitable HPLC method. Additional centrifugation and filtration was performed using 10K molecular weight cutoff filters to remove polymer bound aggregates and colloids. The resulting filtrate of free drug consists of drug in solution and micelles. The volume of FaSSIF added is adjusted to account for the sampling volume removed prior to gastric transfer (typically 4×1.0 mL). Initial Compound 1 API measurements and SDI dissolution samples were determined utilizing HPLC.
The dissolution performance of the SDI material and crystalline Compound 1 was tested in Patheon's non-sink dissolution test (FIG. 6 and Table 15). The dissolution test is used to measure the supersaturation of drug above the bulk crystalline Compound 1 solubility in biorelevant intestinal media (FaSSIF) after 30 minutes exposure to a low-pH environment. […]

[4] = 60:40 DCM:Methanol, clear solution when heated to 40° C.
[5] = 80:20 DCM:Methanol, clear solution when heated to 40° C.
[6] = 90:10 DCM:Methanol, clear solution when heated to 40° C.

- Compound 1 Visual Solubility ([1]; 50:50 DCM:Methanol): >1.0 wt .%
- Observation (visual solubility) ([1]; 50:50 DCM:Methanol): Insoluble
- Compound 1 Visual Solubility [1, 4]: 2.0-3.0 wt .%
- Observation (visual solubility) [1, 4]: Soluble^1
- Compound 1 Visual Solubility [1, 5]: 1.0-1.5 wt .%
- Observation (visual solubility) [1, 5]: Soluble^1
- Compound 1 Visual Solubility [1, 6]: 1.0-1.5 wt .%
- Observation (visual solubility) [1, 6]: Soluble^1
- Compound 1 Visual Solubility ([1]; 95:5 Acetone:Water): >1.0 wt .%
- Observation (visual solubility) ([1]; 95:5 Acetone:Water): Insoluble
- Compound 1 Visual Solubility ([1]; Acetone): >1.0 wt .%
- Observation (visual solubility) ([1]; Acetone): Insoluble
- Compound 1 Visual Solubility ([1]; Methanol): >1.0 wt .%
- Observation (visual solubility) ([1]; Methanol): Insoluble
- Compound 1 Visual Solubility ([1]; Methlyene Chloride (DCM)): >1.0 wt .%
- Observation (visual solubility) ([1]; Methlyene Chloride (DCM)): Insoluble
- Compound 1 Visual Solubility ([1]; Methyl Ethyl Ketone (MEK)): >1.0 wt .%
- Observation (visual solubility) ([1]; Methyl Ethyl Ketone (MEK)): Insoluble
- Compound 1 Visual Solubility ([1]; Tetrahydrofuran (THF)): >1.0 wt .%
- Observation (visual solubility) ([1]; Tetrahydrofuran (THF)): Insoluble
- maximum active loading in solution ([1]; heated (40° C.) 60:40 DCM:Methanol, % w/w): 2.0%
- Tg ([2]; amorphous API by melt-quench, MDSC): 130 °C
- Tm/Tg ratio ([2]; indicating moderate physical stability): 1.32
- Total Drug AUC35-210 FaSSIF ([3]; area under the curve after transfer to FaSSIF from 35 to 210 minutes): 600 min * μgA/mL
- Total Drug C210 ([3]; drug concentration at 180 minutes after transfer to FaSSIF): 3.5 μgA/mL
- Increase in AUC over API AUC ([3]; non-sink dissolution, FaSSIF): 0.4
Compound: O=c1[nH]ncc(N2CCc3c(ncnc3Oc3ccc(F)cc3C(F)(F)F)C2)c1Cl [Compound 1, 4-chloro-5-(4-(4-fluoro-2-(trifluoromethyl)phenoxy)-5,8-dihydropyrido[3,4-d]pyrimidin-7(6H)-yl)pyridazin-3(2H)-one]
